Laboratory results: patent publication US20160128339A1, “CHROMOBACTERIUM FORMULATIONS, COMPOSITIONS, METABLOITES AND THEIR USES” (priority 2011, published 2016)

Key:
TSSM = TSSM control on field strawberry transplants; assay type: in vivo, Tetranychus urticae; settings: rate/acre: abamectin 16 fl. oz., bifenzate 1 lb + INDUCE, COHERE 16 fl. oz., spiromesifin 12 fl. oz. + INDUCE, fenpyroximate 32 fl. oz., hexythiazox 6 oz.; for Number of eggs TSSM/leaflet day 90 / Number of motile TSSM/leaflet day 90: before first spray
Protocol: The efficacy of five traditional compounds and MBI-203 ingredients were evaluated for TSSM control on field strawberry transplants at the Florida Gulf Coast Research and Education Center. Seedlings were transplanted in the Field (day 0), Each 12.5-ft. plot consisted of 20 plants. Plots were infested four times from day 55 through day 71 with 10 to 20 motile TSSM per plant. Seventeen treatments of various rates and schedules of application of miticides, some combined with an adjuvant, and a non-treated check were replicated four times in a RCB design. Treatments were applied using a hand held sprayer with a spray wand outfitted with a nozzle containing a 45-degree core and a number four disc. The sprayer was pressurized by CO2, to 40 psi, and calibrated to deliver 100 gal per acre. Samples were collected weekly from day 90 before first spray through 2 wks after the last application of treatments (day 154). Samples consisted of ten randomly selected leaflets per plot and were collected from the middle one-third stratum of the plants. Motile and egg TSSM were brushed from the leaflets onto rotating sticky discs and counted. No phytotoxicity was observed.

M. hapla nematodes = experiment: In vitro 96-well nematode immobility bioassay; assay type: in vivo; settings: M. hapla J2; 100 μl of 4 mg/ml sample; 24 hour at 25° C.
Protocol: The fractions and pure compounds were dissolved in Dimethylsulfoxide (DMSO) and were tested in an in vitro 96-well plastic cell-culture plate bioassay. Around 15-20 nematodes in a 50 μl water solution were exposed to 100 μl of a 4 mg/ml of sample for a 24 hour period at 25° C. Once the incubation period was completed, results were recorded based on a visual grading of immobility of the juvenile nematodes (J2°s) in each well treated with sampler; each treatment was tested in well repetitions of four. […] Three controls were included in each trial; 1 positive (1% Avid) & 2 negative (DMSO & water). Both trials (T1) and (T2) were carried out using M. hapla nematodes.

[1] = test system: green peach aphid (GPA) adults; experiment: Green peach aphid progeny production on treated pepper leaf discs; assay type: in vivo, Myzus persicae; settings: 1.0 μg/mL in acetone, 100 μL per leaf disc; 3 days
Protocol: MBI-203 at 3% v/v concentration was tested to determine the effect of the compound on the progeny production of green peach aphid (GPA) adults. Bioassays were performed by iteming pepper leaf discs with MBI-203 at 3% v/v. Pepper leaf discs (from 3-4 week old pepper plants) were cut in circles using a 23 mm cookie cutter, selecting a flat portion of tbe leaf to make sure the disc can be evenly laid flat on the agar plate. A 1% agar solution was melted by heating and 30 μL, poured in each petri plate (16 mm×35 mm vented, polystyrene petri plates), just enough to cover the bottom of the plate to prop leaf discs and maintain humidity. The agar was allowed to solidify by cooling at room temperature. Leaf disc treatment was performed by pouring the treatment solution into a glass petri dish. With the solution in the dish, leaf discs were treated by soaking, gently swirling the dish to completely soak and coat the leaf discs. Treatment of leaf discs by soaking was done for 1 minute. […] Progeny (early nymphal instars) were counted 3 days after adult exposure to treated leaf discs. […]
Two concentrations of pare violacein compound in acetone, 0.5 μg/mL and 1.0 μg/mL were used in the test to determine the effect of the compound on the progeny production of green peach aphid (GPA) adults. […] Progeny (early nymphal instars) were counted 3 days after adult exposure to treated leaf discs. […]

[2] = test system: Green Peach Aphid adults (GPA); experiment: Green peach aphid choice repellency bioassay of extracts, fractions and pure compound; assay type: in vivo, Myzus persicae; settings: violacein purified from F9 and F10
Protocol: Choice bioassays on Green Peach Aphid adults (GPA) were done using MBI-203 fractions and pure compound. Fractions and pure compound (violacein) obtained from the extraction of cell paste of C. substugae (MBI-203) were tested for insect efficacy through repellency bioassays. Pepper leaf discs (from 3-4 week old pepper plants) were cut in circles using a 23 mm cookie cutter, selecting a flat portion of the leaf to make sure the leaf disc can be evenly laid flat into the agar plate after treatment of the compound. One percent (%) agar in water was prepared. The 1% agar solution was melted by heating and poured into the 145 mm×20 mm petri plate, enough to cover the bottom surface of the plate to prop leaf discs and maintain humidity. The agar was allowed to solidify by cooling at room temperature.
Leaf disc treatment was done by pipetting gently 100 μL of MBI-203 extract unto the underside of the leaf disc. Treated leaf discs were then allowed to dry off by laying the disc flat unto a labeled 12-well plate cover. […]
All tests were done in three replications. […] Data for repellency of adults and nymphs was determined 24 hours post exposure of adults on treated leaf discs. The number of aphids (adults and nymphs) was counted and data recorded and analyzed, The percent repellency was computed as: % Repellency=100-{([N+A]“on petri dish”)/[N+A]“on petri dish” X100}, […]

Compound | Number of eggs TSSM/leaflet day 90 (TSSM) | Number of motile TSSM/leaflet day 90 (TSSM) | Number of eggs TSSM/leaflet day 98 (TSSM) | Number of eggs TSSM/leaflet day 105 (TSSM) | Number of eggs TSSM/leaflet day 111 (TSSM) | Number of eggs TSSM/leaflet day 118 (TSSM) | Number of eggs TSSM/leaflet day 125 (TSSM) | Number of eggs TSSM/leaflet day 132 (TSSM) | Number of eggs TSSM/leaflet day 139 (TSSM) | Number of eggs TSSM/leaflet day 146 (TSSM) | Number of eggs TSSM/leaflet day 154 (TSSM) | Number of motile TSSM/leaflet day 98 (TSSM) | Number of motile TSSM/leaflet day 105 (TSSM) | Number of motile TSSM/leaflet day 111 (TSSM) | Number of motile TSSM/leaflet day 118 (TSSM) | Number of motile TSSM/leaflet day 125 (TSSM) | Number of motile TSSM/leaflet day 132 (TSSM) | Number of motile TSSM/leaflet day 139 (TSSM) | Number of motile TSSM/leaflet day 146 (TSSM) | Number of motile TSSM/leaflet day 154 (TSSM) | other results
COc1ccc(-c2ccccc2)cc1NNC(=O)OC(C)C [Bifenzate] | 3.8 | 3.8 | 6.0 | 6.0 | 0.8 | 8.3 | 20.5 | 3.01 | 28.0 | 66.5 | 128.3 | 6.0 | 6.0 | 0.8 | 8.3 | 20.5 | 3.0 | 28.0 | 66.5 | 128.3 | 
Oligo-(β-hydroxybutyric acid) |  |  |  |  |  |  |  |  |  |  |  |  |  |  |  |  |  |  |  |  | immobility (M. hapla nematodes): 75%
O=C1NC(c2c[nH]c3ccc(O)cc23)=C/C1=C1\C(=O)Nc2ccccc21 [violacein] |  |  |  |  |  |  |  |  |  |  |  |  |  |  |  |  |  |  |  |  | reduction of progeny production compared to the negative control [1]: about 50%; repellency [2]: 300%
Abamectin | 6.8 | 8.5 | 17.0 | 26.5 | 12.0 | 1.3 | 2.3 | 6.5 | 3.5 | 3.5 | 41.3 | 4.5 | 6.3 | 5.3 | 0.5 | 0.5 | 3.0 | 6.3 | 6.8 | 15.3 | 
Cc1cc(C)c(C2=C(OC(=O)CC(C)(C)C)C3(CCCC3)OC2=O)c(C)c1 [Spiromesifin] | 7.3 | 2.8 | 5.3 | 7.3 | 5.0 | 1.5 | 2.3 | 2.8 | 0.8 | 4.5 | 25.5 | 2.3 | 2.0 | 2.3 | 0.5 | 0.8 | 0.5 | 2.5 | 2.8 | 6.0 | 
C[C@@H]1[C@@H](c2ccc(Cl)cc2)SC(=O)N1C(=O)NC1CCCCC1 [Hexythiazox] | 2.0 | 2.0 | 8.5 | 15.0 | 17.0 | 22.0 | 71.5 | 128.5 | 281.5 | 393.5 | 533.0 | 1.8 | 2.8 | 6.0 | 13.8 | 23.0 | 57.5 | 103.3 | 196.0 | 285.5 | 
Cc1nn(C)c(Oc2ccccc2)c1C=NOCc1ccc(C(=O)OC(C)(C)C)cc1 [Fenpyroximate] | 9.3 | 4.5 | 11.8 | 12.3 | 12.5 | 1.0 | 34.5 | 20.8 | 28.5 | 97.3 | 240.8 | 3.8 | 6.5 | 2.8 | 2.0 | 7.3 | 5.3 | 10.0 | 34.3 | 145.3 | 
